In patent US11712434B2, “Compound having anti-cancer effect, and preparation method therefor and use thereof” (3D MEDICINES (BEIJING) CO., LTD., priority 2016, dated 2023):
Values belong to the molecule of their own block, whether it stands above or below them.

Assays:
Assay in all cases: Cell proliferation assay (Alamar Blue)
Type in all cases: cell-based
[1] = test system: CCRF-CEM; settings: CCRF-CEM tumor cell line, 6 days culture
Description: (§1) 1. Instruments and Materials • Thermo 311 CO2 incubator; Haier biosafety cabinet; Molecular Devices microplate reader; Xiangyi brand L530 desktop low speed centrifuge; Olympus IX51 inverted fluorescence microscope, DMEM, RPMI 1640, MEM, DMEM/F12 1:1 medium, Fetal bovine serum, 0.25% trypsin solution, phosphate buffer (Thermo Fisher Shanghai Co., Ltd.); sigma dimethyl sulfoxide (DMSO), resazurin; 54 commercial tumor cell lines (including 26 liver cancer cell lines). Experimental drugs: compounds 1-12 and active drug Linifanib; chemotherapeutic drug Doxorubicin (HY-15142; Shanghai Qianyuan Biomedical Technology Co., Ltd.).
(§2) 2. Experimental Methods • 2.1 Cultivation of Different Cell Lines • 54 cell lines were cultured in a culture medium containing fetal bovine serum and placed in a 5% CO2 incubator at 37° C. for incubation. The cells were all grown in an adherent state, and the growth was observed under an inverted microscope, and subculture was performed when the cell confluence rate reached 80%-90%. The proportion and quantity of passage were determined by experimental needs. The ratio of subculture of this cell line was generally 1:2^˜1:3. • 2.2 Inhibition Effect on the Proliferation of Different Tumor Cell Lines • Cell test: 54 cell lines in logarithmic growth phase were inoculated in 96-well culture plates at 500^˜1×10^4/well (the optimal seeding density of each cell line was determined in pre-experiment), After incubating at 37° C. for 4 h in a 5% CO2 humidification incubator, added 10 μL of compounds 1-12 or Linifanib to each well, and tested 9 drug concentration gradients for each compound (diluted from the highest concentration of the test by 3.16 times). The solubility of each compound was different at a starting concentration of 100 or 30 μM, respectively. The QC reference compound Doxorubicin was added simultaneously to each cell line test, and the final drug concentrations were 10, 3.16, 1, 0.31, 0.1, 0.03, 0.01, 0.003, and 0.001 μM, respectively. In addition, a positive control group (100% inhibition) and a negative control group (0% inhibition) were set at the same time. The drug group was repeated for 2 wells per concentration, and the positive control group and the negative control group were repeated for 6 wells. After the culture was continued for 6 days in the incubator, AlamarBlue test operation was followed; • AlamarBlue test procedure: Incubated with 10 μL of AlamarBlue reagent per well for 1-4 h, shook for 1-2 min, MD microplate reader EX: 560 nm, EM: 590 nm wavelength to measure fluorescence, recorded the results, calculated the cell inhibition rate of the compound of the invention. Cell inhibition rate (%)=(A0% inhibition−A administration)/(A0% inhibition−A100% inhibition)×100%, and then using the method of nonlinear regression using GraphPad Prism 5.0 or MATILAB software (usually using four parameters) to graph and obtain a drug dose response curve to obtain an IC50 value of the compound of the present invention acting on a cancer cell line.

[2] = test system: DLD1; settings: DLD1 tumor cell line, 6 days culture
Description: as §1, §2

[3] = test system: DU145; settings: DU145 tumor cell line, 6 days culture
Description: as §1, §2

[4] = test system: HCCLM3; settings: HCCLM3 tumor cell line, 6 days culture
Description: as §1, §2

[5] = test system: HEPG2; settings: HEPG2 liver cancer cell line, 6 days culture
Description: as §1, §2

[6] = test system: HUH6; settings: HUH6 liver cancer cell line, 6 days culture
Description: as §1, §2

[7] = test system: HuTu80; settings: HuTu80 tumor cell line, 6 days culture
Description: as §1, §2

[8] = test system: JHH1; settings: JHH1 liver cancer cell line, 6 days culture
Description: as §1, §2

[9] = test system: JHH2; settings: JHH2 liver cancer cell line, 6 days culture
Description: as §1, §2

[10] = test system: JHH4; settings: JHH4 liver cancer cell line, 6 days culture
Description: as §1, §2

[11] = test system: JHH5; settings: JHH5 liver cancer cell line, 6 days culture
Description: as §1, §2

[12] = test system: JHH7; settings: JHH7 liver cancer cell line, 6 days culture
Description: as §1, §2

[13] = test system: KASUMI-1; settings: KASUMI-1 (leukemia cells), 6 days culture
Description: as §1, §2

[14] = test system: KM12; settings: KM12 tumor cell line, 6 days culture
Description: as §1, §2

[15] = test system: LNCAP-clone-FGC; settings: LNCAP-clone-FGC tumor cell line, 6 days culture
Description: as §1, §2

[16] = test system: Li-7; settings: Li-7 liver cancer cell line, 6 days culture
Description: as §1, §2

[17] = test system: MFM-223; settings: MFM-223 tumor cell line, 6 days culture
Description: as §1, §2

[18] = test system: NCI-H1648; settings: NCI-H1648 tumor cell line, 6 days culture
Description: as §1, §2

[19] = test system: NCI-H1703; settings: NCI-H1703 (lung cancer cells), 6 days culture
Description: as §1, §2

[20] = test system: NCI-H2170; settings: NCI-H2170 tumor cell line, 6 days culture
Description: as §1, §2

[21] = test system: NCI-H661; settings: NCI-H661 tumor cell line, 6 days culture
Description: as §1, §2

[22] = test system: SNU182; settings: SNU182 liver cancer cell line, 6 days culture
Description: as §1, §2

[23] = test system: SNU387; settings: SNU387 liver cancer cell line, 6 days culture
Description: as §1, §2

[24] = test system: SNU423; settings: SNU423 liver cancer cell line, 6 days culture
Description: as §1, §2

[25] = test system: SNU475; settings: SNU475 liver cancer cell line, 6 days culture
Description: as §1, §2

[26] = test system: SNU761; settings: SNU761 liver cancer cell line, 6 days culture
Description: as §1, §2

[27] = test system: SW620; settings: SW620 tumor cell line, 6 days culture
Description: as §1, §2

- IC50 [1]: > 100 µM
- IC50 [2]: > 100 µM
- IC50 [3]: > 100 µM
- IC50 [4]: > 100 µM
- IC50 [5]: 54.3 µM
- IC50 [6]: > 100 µM
- IC50 [15]: > 100 µM
- IC50 [18]: > 100 µM
- IC50 [19]: 1.24 µM
- IC50 [20]: > 100 µM
- IC50 [21]: > 100 µM
- IC50 [22]: > 100 µM
- IC50 [23]: > 100 µM
- IC50 [24]: > 100 µM
- IC50 [25]: > 100 µM
- IC50 [26]: > 100 µM
- IC50 [27]: > 100 µM
SMILES: Cc1ccc(F)c(NC(=O)Nc2ccc(-c3cccc4[nH]nc(NC(=O)CCCCCNC(=O)C[C@H](N)C(=O)N[C@@H](CCC(=O)O)C(=O)O)c34)cc2)c1 [Compound 4]
- IC50 [7]: 75.4 µM
- IC50 [8]: > 100 µM
- IC50 [9]: > 100 µM
- IC50 [10]: > 100 µM
- IC50 [11]: > 100 µM
- IC50 [12]: > 100 µM
- IC50 [13]: 1.53 µM
- IC50 [14]: > 100 µM
- IC50 [16]: > 100 µM
- IC50 [17]: > 100 µM

- IC50 ([1]; Homo sapiens, 144 h): > 100 µM
- IC50 ([2]; Homo sapiens, DLD-1, 144 h): > 100 µM
- IC50 ([3]; Homo sapiens, DU-145, 144 h): > 100 µM
- IC50 ([4]; Homo sapiens, 144 h): > 100 µM
- IC50 ([5]; Homo sapiens, 144 h): 72.2 µM
- IC50 ([6]; Homo sapiens, HuH-6, 144 h): > 100 µM
- IC50 ([15]; Homo sapiens, 144 h): > 100 µM
- IC50 ([18]; Homo sapiens, 144 h): > 100 µM
- IC50 ([19]; Homo sapiens, 144 h): 2.81 µM
- IC50 ([20]; Homo sapiens, 144 h): > 100 µM
- IC50 ([21]; Homo sapiens, 144 h): > 100 µM
- IC50 ([22]; Homo sapiens, SNU-182, 144 h): > 100 µM
- IC50 ([23]; Homo sapiens, SNU-387, 144 h): > 100 µM
- IC50 ([24]; Homo sapiens, SNU-423, 144 h): > 100 µM
- IC50 ([25]; Homo sapiens, SNU-475, 144 h): > 100 µM
- IC50 ([26]; 144 h): > 100 µM
- IC50 ([27]; Homo sapiens, SW-620, 144 h): > 100 µM
SMILES: Cc1ccc(F)c(NC(=O)Nc2ccc(-c3cccc4[nH]nc(NC(=O)CCCCCNC(=O)C[C@H](N)C(=O)N[C@@H](CCC(=O)N[C@@H](CCC(=O)N[C@@H](CCC(=O)N[C@@H](CCC(=O)O)C(=O)O)C(=O)O)C(=O)O)C(=O)O)c34)cc2)c1 [Compound 5]
- IC50 ([7]; Homo sapiens, 144 h): > 100 µM
- IC50 ([8]; 144 h): > 100 µM
- IC50 ([9]; JHH-2, 144 h): > 100 µM
- IC50 ([10]; JHH-4, 144 h): > 100 µM
- IC50 ([11]; 144 h): > 100 µM
- IC50 ([12]; 144 h): > 100 µM
- IC50 ([13]; Homo sapiens, 144 h): 4.26 µM
- IC50 ([14]; Homo sapiens, 144 h): > 100 µM
- IC50 ([16]; 144 h): > 100 µM
- IC50 ([17]; Homo sapiens, 144 h): > 100 µM

- IC50 [1]: > 100 µM
- IC50 [2]: > 100 µM
- IC50 [3]: > 100 µM
- IC50 [4]: > 100 µM
- IC50 [5]: 9.53 µM
- IC50 [6]: > 100 µM
- IC50 [15]: 95.5 µM
- IC50 [18]: > 100 µM
- IC50 [19]: 0.11 µM
- IC50 [20]: 48 µM
- IC50 [21]: > 100 µM
- IC50 [22]: > 100 µM
- IC50 [23]: > 100 µM
- IC50 [24]: > 100 µM
- IC50 [25]: > 100 µM
- IC50 [26]: > 100 µM
- IC50 [27]: 56.3 µM
SMILES: Cc1ccc(F)c(NC(=O)Nc2ccc(-c3cccc4[nH]nc(NC(=O)CCCCCCCCCCCNC(=O)C[C@H](N)C(=O)N[C@@H](CCC(=O)O)C(=O)O)c34)cc2)c1 [Compound 7]
- IC50 [7]: 27.7 µM
- IC50 [8]: > 100 µM
- IC50 [9]: > 100 µM
- IC50 [10]: > 100 µM
- IC50 [11]: > 100 µM
- IC50 [12]: 63.4 µM
- IC50 [13]: 0.23 µM
- IC50 [14]: 79.1 µM
- IC50 [16]: > 100 µM
- IC50 [17]: 88.3 µM
